Assay results from patent US8673336B2, “Composition, system, and method for modulating release kinetics in implantable drug delivery devices by modifying drug solubility” (Innovational Holdings LLC, priority 2005, dated 2014).
Counter-ions that a name gives are not always drawn.

Experiments:
[1] = in vitro cumulative release from low dose imatinib stents (PLGA 85/15 matrix, base and cap); type: physicochemical; settings: about 160 micrograms per 16 mm stent, average of three stents
Experimental: The imatinib free-base (slow release) and the imatinib meslate salt (Gleevec) were loaded into holes in stents in a polymer matrix of PLGA 85/15 with a PLGA 85/15 base and cap and the release from the stents was recorded in FIG. 1. A solvent such as NMP or anisol was used to deposit the drug/polymer compositions and then evaporated. The releases shown in FIG. 1 are the average of three stents each. Methods and systems for depositing polymers and drugs within holes in stents are described further in WO 2004/026182 which is incorporated herein by reference.
The dosage for this example was about 160 micrograms normalized for a 16 mm long stent. The free base and salt forms where then combined in the ratios of 86:14, 66:34, and 46:54 and it was shown that the rate of the release (solubility of the drug) is proportional to the percentage of free base or salt. Thus, the selection of a percentage of free base and salt can be used to provide a selected drug release kinetic.
The addition of the free-base form allows the release to be extended past 48 hours to about 72 hours for a formulation of 46% free base and to about 120 hours for a formulation of about 66% free base. While a formulation with 86% free base continues to release imatinib in-vitro at 168 hours and beyond.

[2] = effect of counter ions on in vitro release of imatinib from stents; type: physicochemical; settings: total drug load 150 μg to 200 μg; PLA-PLC base and cap, PLGA matrix
Experimental: FIG. 4 illustrates the effect of several counter ions on the in vitro release of a drug, in this example imatinib. Total drug load was 150 μg to 200 μg. PLA-PLC was used in the base and cap while the matrix containing the drug was PLGA as in Examples 1 and 2.

Structure (SMILES): Cc1ccc(NC(=O)c2ccc(CN3CCN(C)CC3)cc2)cc1Nc1nccc(-c2cccnc2)n1 [free base, imatinib]
- rate of release from stents (FIG. 1) [1]: slowest release

Structure (SMILES): Cc1ccc(NC(=O)c2ccc(CN3CCN(C)CC3)cc2)cc1Nc1nccc(-c2cccnc2)n1 [imatinib mesylate]
- time until release is essentially complete / extent of release duration (FIG. 1) [1]: about 48 hours
- rate of release from stents (FIG. 1) ([1]; listed as salt): fastest release
- cumulative in vitro release (FIG. 4) [2]: significantly higher cumulative release, relatively quickly, than imatinib salicylate

Structure (SMILES): Cc1ccc(NC(=O)c2ccc(CN3CCN(C)CC3)cc2)cc1Nc1nccc(-c2cccnc2)n1.O=C(O)c1ccccc1O [imatinib salicylate]
- cumulative in vitro release (FIG. 4) [2]: significantly higher that that of imatinib
